Results from patent US20240391862A1, “(1,4,5-TRISUBSTITUTED-1H-PYRAZOL-3-YL)OXY-2-ALKOXY ALKYL ACIDS AND THEIR DERIVATIVES, THEIR SALTS AND THEIR USE AS HERBICIDAL AGENTS” (Bayer AKtiengesellschaft, priority 2021, published 2024).

Columns and labels:
ALOMY = assay: Post-emergence herbicidal effect, greenhouse pot test; assay type: in vivo, Alopecurus myosuroides; details: Alopecurus myosuroides, 504 h, 320 g/ha, visual rating about 3 weeks after treatment, read-out: Post-emergence effect against ALOMY
How it was run: (§1)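 Visual % activity scored roughly 3 weeks post-spray against untreated plants, where 100% means death and 0% equals control. Plants were treated at the one-leaf stage, 2 to 3 weeks after sowing in sandy loam, at 20 to 320 g/ha.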

DIGSA = assay: as above; assay type: in vivo, Digitaria sanguinalis; details: Digitaria sanguinalis, 504 h, visual rating about 3 weeks after treatment, read-out: Post-emergence effect against DIGSA
How it was run: as §1

ABUTH = assay: as above; assay type: in vivo, Abutilon theophrasti; details: Abutilon theophrasti, 504 h, visual rating about 3 weeks after treatment, read-out: Post-emergence effect against ABUTH
How it was run: as §1

KCHSC = assay: as above; assay type: in vivo; details: 504 h, read-out: Post-emergence effect against KCHSC in %
How it was run: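 Visual rating of activity against untreated plants (100% = plants died, 0% = no effect), done about 3 weeks after treatment. Compounds applied at 20–320 g/ha as aqueous spray (600 l/ha, 0.5% additive) from WP or EC formulations onto one-leaf-stage plants grown in sandy loam under greenhouse conditions.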

SETVI = assay: as above; assay type: in vivo, Setaria viridis; details: Setaria viridis, 504 h, read-out: Post-emergence effect against SETVI in %
How it was run: as §1

ECHCG = assay: as above; assay type: in vivo, Echinochloa crus-galli; details: Echinochloa crus-galli, 504 h; for pest or weed control at 80 g/ha / pest or weed control at 320 g/ha: read-out: Post-emergence effect against ECHCG in %
How it was run: as §1

VERPE = assay: as above; assay type: in vivo, Veronica persica; details: Veronica persica, 504 h, 320 g/ha, read-out: Post-emergence effect against VERPE in %
How it was run: as §1

AMARE = assay: as above; assay type: in vivo, Amaranthus retroflexus; details: Amaranthus retroflexus, 504 h, visual rating about 3 weeks after treatment, read-out: Post-emergence effect against AMARE
How it was run: as §1

LOLRI = assay: as above; assay type: in vivo, Lolium rigidum; details: Lolium rigidum, 504 h, read-out: Post-emergence effect against LOLRI in %
How it was run: as §1

PHBPU = assay: as above; assay type: in vivo, Ipomoea purpurea; details: Ipomoea purpurea, 504 h, read-out: Post-emergence effect against PHBPU in %
How it was run: as §1

POLCO = assay: as above; assay type: in vivo, Fallopia convolvulus; details: Fallopia convolvulus, 504 h, read-out: Post-emergence effect against POLCO in %
How it was run: as §1

VIOTR = assay: as above; assay type: in vivo, Viola tricolor; details: Viola tricolor, 504 h, read-out: Post-emergence effect against VIOTR in %
How it was run: as §1

AVEFA = assay: as above; assay type: in vivo, Avena fatua; details: Avena fatua, 504 h, visual rating about 3 weeks after treatment, read-out: Post-emergence effect against AVEFA
How it was run: as §1

ZEAMX = assay: Post-emergence herbicidal effect and crop plant compatibility, greenhouse pot test; assay type: in vivo, Zea mays; details: Zea mays, 504 h, one-leaf stage, rated visually after about 3 weeks vs untreated controls
Excerpt: • ALOMY: Alopecurus myosuroides SETVI: Setaria viridis • AVEFA: Avena fatua POLCO: Fallopia convolvulus • AMARE: Amaranthus retroflexus ECHCG: Echinochloa crus-galli • LOLRJ: Lolium rigidum STEME: Stellaria media • VERPE: Veronica persica MATIN: Tripleurospermum inodorum • DIGSA: Digitaria sanguinalis ABUTH: Abutylon threophrasti • TRZAS: Triticum aestivum VIOTR: Viola tricolor • BRSNW: Brassica napus ZEAMX: Zea mays • PHBPU: Ipomoea purpurea GLXMA: Glycine max • ORYSA: Oryza sativa HORMU: Hordeum murinum
Seeds of monocotyledonous and dicotyledonous weeds and crop plants are placed in sandy loam in plastic or organic planting pots, covered with soil and cultivated in a greenhouse under controlled growth conditions. 2 to 3 weeks after sowing, the trial plants are treated at the one-leaf stage. The compounds of the invention, formulated in the form of wettable powders (WP) or as emulsion concentrates (EC), are then sprayed onto the green parts of the plants as aqueous suspension or emulsion with addition of 0.5% additive at a water application rate of 600 l/ha (converted). After the test plants have been kept in the greenhouse under optimum growth conditions for about 3 weeks, the activity of the preparations is rated visually in comparison to untreated controls. For example, 100% activity=the plants have died, 0% activity=like control plants.
Tables 20a to 38c below show the effects/crop compatibilities of selected compounds of the general formula (I) on various harmful plants at an application rate corresponding to 20 to 320 g/ha, which were obtained by the trial procedure specified above.

Compound: COC(=O)C(OC)Oc1nn(-c2ncccc2F)c(-c2cncc(F)c2)c1I (centres unmarked) [Example I-72]
- pest or weed control at 320 g/ha (ALOMY): 90%
- pest or weed control at 80 g/ha (DIGSA; 80 g/ha): 90%
- pest or weed control at 320 g/ha (DIGSA): 90%
- pest or weed control at 80 g/ha (ABUTH): 80%
- pest or weed control at 320 g/ha (ABUTH): 90%
- pest or weed control at 20 g/ha (KCHSC; 20 g/ha): 90%
- pest or weed control at 80 g/ha (KCHSC): 90%
- pest or weed control at 320 g/ha (KCHSC): 90%
- pest or weed control at 20 g/ha (SETVI; 20 g/ha): 90%
- pest or weed control at 80 g/ha (SETVI; 80 g/ha): 90%
- pest or weed control at 320 g/ha (SETVI): 90%
- pest or weed control at 20 g/ha (ECHCG; 20 g/ha, visual rating about 3 weeks after treatment, read-out: Post-emergence effect against ECHCG): 90%
- pest or weed control at 80 g/ha (ECHCG): 90%
- pest or weed control at 320 g/ha (ECHCG): 90%
- pest or weed control at 320 g/ha (VERPE): 90%
- pest or weed control at 20 g/ha (AMARE; 20 g/ha): 80%
- pest or weed control at 80 g/ha (AMARE; 80 g/ha): 80%
- pest or weed control at 320 g/ha (AMARE; 320 g/ha): 80%
- pest or weed control at 320 g/ha (LOLRI): 90%
- pest or weed control at 20 g/ha (PHBPU; 20 g/ha): 80%
- pest or weed control at 80 g/ha (PHBPU): 90%
- pest or weed control at 320 g/ha (PHBPU): 90%
- pest or weed control at 20 g/ha (POLCO; 20 g/ha): 80%
- pest or weed control at 80 g/ha (POLCO): 80%
- pest or weed control at 320 g/ha (POLCO): 90%
- pest or weed control at 20 g/ha (VIOTR; 20 g/ha): 90%
- pest or weed control at 80 g/ha (VIOTR): 90%
- pest or weed control at 320 g/ha (VIOTR): 90%
- pest or weed control at 80 g/ha (AVEFA): 90%
- pest or weed control at 320 g/ha (AVEFA): 90%

Compound: CCOC(=O)C(OC)Oc1nn(-c2ncccc2F)c(-c2ccc(F)nc2)c1C1CC1 (centres unmarked) [Example I-58]
- pest or weed control at 320 g/ha (ALOMY): 90%
- pest or weed control at 320 g/ha (DIGSA): 80%
- pest or weed control at 80 g/ha (ABUTH): 80%
- pest or weed control at 320 g/ha (ABUTH): 80%
- pest or weed control at 80 g/ha (KCHSC): 90%
- pest or weed control at 320 g/ha (KCHSC): 90%
- pest or weed control at 320 g/ha (SETVI): 90%
- pest or weed control at 80 g/ha (ECHCG): 90%
- pest or weed control at 320 g/ha (ECHCG): 90%
- plant injury at 20 g/ha (ZEAMX; 20 g/ha, read-out: Post-emergence effect at 20 g/ha against ZEAMX in %): 0%
- plant injury at 80 g/ha (ZEAMX; 80 g/ha, read-out: Post-emergence effect at 80 g/ha against ZEAMX in %): 10%
- pest or weed control at 320 g/ha (VERPE): 80%
- pest or weed control at 80 g/ha (LOLRI; 80 g/ha): 90%
- pest or weed control at 320 g/ha (LOLRI): 90%
- pest or weed control at 80 g/ha (PHBPU): 80%
- pest or weed control at 320 g/ha (PHBPU): 90%
- pest or weed control at 80 g/ha (POLCO): 80%
- pest or weed control at 320 g/ha (POLCO): 80%
- pest or weed control at 80 g/ha (VIOTR): 80%
- pest or weed control at 320 g/ha (VIOTR): 80%
- pest or weed control at 20 g/ha (AVEFA; 20 g/ha): 80%
- pest or weed control at 80 g/ha (AVEFA): 80%
- pest or weed control at 320 g/ha (AVEFA): 90%
